Like-named read-outs stand apart in the source and are kept apart here.
Assays:
[1] = system: Puccinia recondita f. sp. tritici; assay: Test I: wheat leaf rust, preventive spray on wheat seedlings, visual disease rating; settings: for Test I rating (% disease control) / Test I disease control rating: wheat leaf rust, 100 = 100% disease control; for Test I disease control rating: sprayed the day before inoculation, 0 = no disease control relative to controls; for pest or weed control at 200 µg/mL: 192 h
Botrytis cinerea = assay: Test B: tomato Botrytis, preventive spray on tomato seedlings, visual disease rating; settings: for Test B rating (% disease control) / Test B disease control rating: tomato Botrytis, 100 = 100% disease control; for Test B disease control rating: 0 = no disease control relative to controls; for pest or weed control at 200 µg/mL: Botrytis cinerea, in Solanum lycopersicum, 120 h
Source text: (§1) General protocol for preparing test suspensions for Tests A-J: the test compounds were first dissolved in acetone in an amount equal to 3% of the final volume and then suspended at the desired concentration (in ppm) in acetone and purified water (50/50 mix by volume) containing 250 ppm of the surfactant Trem® 014 (polyhydric alcohol esters). The resulting test suspensions were then used in Tests A-J. Spraying a 200 ppm test suspension to the point of run-off on the test plants was the equivalent of a rate of 500 g/ha. Unless otherwise indicated, the rating values indicate a 200 ppm test suspension was used. (An asterisk “*” next to the rating value indicates a 40 ppm test suspension was used.)
The test suspension was sprayed to the point of run-off on tomato seedlings. The following day the seedlings were inoculated with a spore suspension of Botrytis cinerea (the causal agent of tomato Botrytis) and incubated in saturated atmosphere at 20° C. for 48 h, and then moved to a growth chamber at 24° C. for 3 additional days, after which time visual disease ratings were made.

Septoria tritici = assay: Test G: wheat leaf blotch, preventive spray on wheat seedlings, visual disease rating; settings: for Test G rating (% disease control) / Test G disease control rating: wheat leaf blotch, 100 = 100% disease control; for Test G disease control rating: sprayed the day before inoculation, 0 = no disease control relative to controls; for pest or weed control at 200 µg/mL: Zymoseptoria tritici, in Triticum aestivum, 504 h
Source text: as §1
The test suspension was sprayed to the point of run-off on wheat seedlings. The following day the seedlings were inoculated with a spore suspension of Septoria tritici (the causal agent of wheat leaf blotch) and incubated in saturated atmosphere at 24° C. for 48 h. and then the seedlings were moved to a growth chamber at 20° C. for 19 additional days, after which time visual disease ratings were made.

Alternaria solani = assay: Test C: tomato early blight, preventive spray on tomato seedlings, visual disease rating; settings: for Test C rating (% disease control) / Test C disease control rating: tomato early blight, 100 = 100% disease control; for Test C disease control rating: 0 = no disease control relative to controls; for pest or weed control at 200 µg/mL: Alternaria solani, in Solanum lycopersicum, 168 h
[2] = system: Erysiphe graminis f sp. tritici; assay: Test J: wheat powdery mildew, preventive spray on wheat seedlings, visual disease rating; settings: for Test J rating (% disease control) / Test J disease control rating: wheat powdery mildew, 100 = 100% disease control; for Test J disease control rating: sprayed the day before inoculation, 0 = no disease control relative to controls; for pest or weed control at 200 µg/mL: Blumeria graminis, in Triticum aestivum, 192 h
Septoria nodorum = assay: Test F: Septoria glume blotch, preventive spray on wheat seedlings, visual disease rating; settings: for Test F rating (% disease control) / Test F disease control rating: 100 = 100% disease control; for Test F disease control rating: 0 = no disease control relative to controls; for pest or weed control at 200 µg/mL: Parastagonospora nodorum, in Triticum aestivum, 192 h
[3] = system: Puccinia recondita f. sp. tritici; assay: Test H: wheat leaf rust, curative spray on inoculated wheat seedlings, visual disease rating; settings: for Test H rating (% disease control) / Test H disease control rating: wheat leaf rust, 100 = 100% disease control; for Test H disease control rating: sprayed after inoculation, 0 = no disease control relative to controls; for pest or weed control at 200 µg/mL: 144 h
[4] = preventive, 0 = no control relative to controls
[5] = 0 = no control relative to controls
[6] = Septoria glume blotch, 0 = no control relative to controls
[7] = curative, 0 = no control relative to controls
[8] = preventive spray, 0 = no control
[9] = Septoria glume blotch on wheat, preventive spray, 0 = no control

Structure (SMILES) | Test I rating (% disease control) [1, 4] | Test B rating (% disease control) (Botrytis cinerea; [5]) | Test G rating (% disease control) (Septoria tritici; [5]) | Test C rating (% disease control) (Alternaria solani; [5]) | Test J rating (% disease control) [2, 5] | Test F rating (% disease control) (Septoria nodorum; [6]) | Test H rating (% disease control) [3, 7] | Test I rating (% disease control) [1, 8] | Test B rating (% disease control) (Botrytis cinerea; [8]) | Test G rating (% disease control) (Septoria tritici; [8]) | Test C rating (% disease control) (Alternaria solani; [8]) | Test J rating (% disease control) [2, 8] | Test F rating (% disease control) (Septoria nodorum; [9]) | Test H rating (% disease control) ([3]; curative spray, 0 = no control) | other results
COc1cc(F)c(-c2c(C)nn(C)c2Oc2ccc(Br)c(C)c2)c(F)c1 [compound 186] | 54% | 0% | 99% | 0% | 93% | 0% | 0% |  |  |  |  |  |  |  | 
Cc1nn(C)c(Nc2ccc(C#N)cc2F)c1-c1ccc(F)cc1F [compound 246] | 80% | 99% | 100% | 51% | 100% | 0% | 0% |  |  |  |  |  |  |  | 
Cc1nn(C)c(Nc2ccc(F)cc2F)c1-c1ccc(C#N)cc1Cl [compound 331] |  |  |  |  |  |  |  |  |  |  |  |  |  |  | Test I disease control rating [1]: 100%; Test B disease control rating (Botrytis cinerea): 100%; Test G disease control rating (Septoria tritici): 100%; Test C disease control rating (Alternaria solani): 80%; Test J disease control rating [2]: 97%; Test F disease control rating (Septoria nodorum; Septoria glume blotch on wheat): 73%; Test H disease control rating [3]: 8%
Cc1nn(C)c(Nc2c(F)cc(F)cc2F)c1-c1c(F)cccc1F [compound 300] | 99% | 100% | 100% | 99% | 100% | 82% | 9% |  |  |  |  |  |  |  | 
COc1cc(F)c(-c2c(C)nn(C)c2Oc2c(F)cc(C#N)cc2F)c(F)c1 [compound 140] |  |  |  |  |  |  |  | 96% | 99% | 99% | 94% | 97% | 87% | 0% | 
Cc1nn(C)c(Oc2ccc([N+](=O)[O-])cc2Cl)c1-c1ccc(F)cc1Cl [compound 119] |  |  |  |  |  |  |  | 99% | 100% | 100% | 0% | 96% | 0% | 16% | 
Cc1nn(C)c(Nc2ccc(F)cc2F)c1-c1c(F)cccc1F [compound 178] | 83% | 100% | 98% | 100% | 100% | 80% | 0% |  |  |  |  |  |  |  | 
Cc1nn(C)c(Nc2c(F)cc(Cl)cc2F)c1-c1ccc(F)cc1Br [Compound 360, 4-(2-bromo-4-fluorophenyl)-N-(4-chloro-2,6-difluorophenyl)-1,3-dimethyl-1H-pyrazol-5-amine] |  |  |  |  |  |  |  |  |  |  |  |  |  |  | pest or weed control at 200 µg/mL ([1]; read-out: Test I disease control rating): 100%; pest or weed control at 200 µg/mL (Botrytis cinerea; read-out: Test B disease control rating): 100%; pest or weed control at 200 µg/mL (Septoria tritici; read-out: Test G disease control rating): 100%; pest or weed control at 200 µg/mL (Alternaria solani; read-out: Test C disease control rating): 97%; pest or weed control at 200 µg/mL ([2]; read-out: Test J disease control rating): 100%; pest or weed control at 200 µg/mL (Septoria nodorum; read-out: Test F disease control rating): 95%; pest or weed control at 200 µg/mL ([3]; read-out: Test H disease control rating): 79%
COc1cc(F)c(Nc2c(-c3ccc(C)cc3)c(C)nn2C)c(F)c1 [compound 80] |  |  |  |  |  |  |  | 86% | 100% | 99% | 0% | 89% | 0% | 18% | 
Cc1nn(C)c(Oc2c(F)cc([N+](=O)[O-])cc2F)c1-c1c(F)cc(F)cc1F [Compound 54, 5-(2,6-Difluoro-4-nitrophenoxy)-1,3-dimethyl-4-(2,4,6-trifluorophenyl)-1H-pyrazole] |  |  |  |  |  |  |  |  |  |  |  |  |  |  | pest or weed control at 200 µg/mL ([1]; read-out: Test I rating (% disease control)): 95%; pest or weed control at 200 µg/mL (Botrytis cinerea; read-out: Test B rating (% disease control)): 96%; pest or weed control at 200 µg/mL (Septoria tritici; read-out: Test G rating (% disease control)): 41%; pest or weed control at 200 µg/mL (Alternaria solani; read-out: Test C rating (% disease control)): 0%; pest or weed control at 200 µg/mL ([2]; read-out: Test J rating (% disease control)): 95%; pest or weed control at 200 µg/mL (Septoria nodorum; read-out: Test F rating (% disease control)): 0%; pest or weed control at 200 µg/mL ([3]; read-out: Test H rating (% disease control)): 0%
Cc1nn(C)c(Oc2cccc(C#N)c2)c1-c1c(F)cc(F)cc1F [compound 222] | 99% | 99% | 100% | 99% | 100% | 0% | 88% |  |  |  |  |  |  |  | 
Cc1nn(C)c(Nc2ncc(F)cc2F)c1-c1ccc(F)cc1Cl [compound 154] | 100% | 99% | 100% | 99% | 100% | 97% | 41% |  |  |  |  |  |  |  | 
Cc1ccc(-c2c(C)nn(C)c2Nc2c(F)cc(F)cc2F)cc1 [compound 79] |  |  |  |  |  |  |  | 55% | 99% | 99% | 0% | 0% | 0% | 0% | 
COc1ccc(Nc2c(-c3ccc(F)cc3Cl)c(C)nn2C)c(Cl)c1 [compound 322] |  |  |  |  |  |  |  |  |  |  |  |  |  |  | Test I disease control rating [1]: 100%; Test B disease control rating (Botrytis cinerea): 100%; Test G disease control rating (Septoria tritici): 100%; Test C disease control rating (Alternaria solani): 93%; Test J disease control rating [2]: 100%; Test F disease control rating (Septoria nodorum; Septoria glume blotch on wheat): 0%; Test H disease control rating [3]: 99%
Cc1nn(C)c(Nc2ccc(Cl)cc2)c1-c1ccc(F)cc1Cl [compound 19] |  |  |  |  |  |  |  | 92% | 100% | 96% | 85% | 98% | 0% | 0% | 

— patent US10448639B2, “Fungicidal pyrazoles” (FMC CORPORATION, priority 2009, dated 2019)
